According to patent publication US9695168B2 (Incyte Corporation, priority 2014, dated 2017):

Molecular target: LSD1 (Homo sapiens (Human), UniProt O60341)
Test: LSD1 Histone Demethylase Biochemical Assay (LANCE LSD1/KDM1A demethylase assay)
Conditions: 1 nM LSD-1 enzyme, 1 hour preincubation at 25° C., 0.4 μM Biotin-labeled Histone H3 peptide substrate
Procedure: LSD1 Histone Demethylase Biochemical Assay
LANCE LSD1/KDM1A demethylase assay-10 μL of 1 nM LSD-1 enzyme (ENZO BML-SE544-0050) in the assay buffer (50 mM Tris, pH 7.5, 0.01% Tween-20, 25 mM NaCl, 5 mM DTT) were preincubated for 1 hour at 25° C. with 0.8 μL compound/DMSO dotted in black 384 well polystyrene plates. […] Reactions were stopped by addition of 10 μL 1× LANCE Detection Buffer (PerkinElmer CR97-100) supplemented with 1.5 nM Eu-anti-unmodified H3K4 Antibody (PerkinElmer TRF0404), and 225 nM LANCE Ultra Streptavidin (PerkinElmer TRF102) along with 0.9 mM Tranylcypromine-HCl (Millipore 616431). After stopping the reactions plates were incubated for 30 minutes and read on a PHERAstar FS plate reader (BMG Labtech).

Compound `CN(C)[C@H]1CCN(c2nc(-c3ccc(C#N)cc3)c(-c3ccc4c(c3)oc(=O)n4C)n3cncc23)C1` [Example 112, (S)-4-(8-(3-(dimethylamino)pyrrolidin-1-yl)-5-(3-methyl-2-oxo-2,3-dihydrobenzo[d]oxazol-6-yl)imidazo[1,5-a]pyrazin-6-yl)benzonitrile] has an IC50 of 50 to 100 nM.

Compound `CCn1nnc2cc(-c3c(-c4ccc(C#N)cc4)cc(OC[C@@H]4CCCN(C)C4)c4cncn34)cnc21` [Example 117, 4-(5-(3-ethyl-3H-[1,2,3]triazolo[4,5-b]pyridin-6-yl)-8-{[(3R)-1-methylpiperidin-3-yl]methoxy}imidazo[1,5-a]pyridin-6-yl)benzonitrile] has an IC50 of 50 to 100 nM.

Compound `CC(O)CN1CCC[C@@H](COc2cc(-c3ccc(C#N)cc3)c(-c3cnc4c(c3)OCCO4)n3cncc23)C1` (stereo partly drawn) [Example 118, 4-(5-(2,3-dihydro[1,4]dioxino[2,3-b]pyridin-7-yl)-8-{[(3R)-1-(2-hydroxypropyl)piperidin-3-yl]methoxy}imidazo[1,5-a]pyridin-6-yl)benzonitrile] has an IC50 of 50 to 100 nM.

`CC(O)CN1CCC[C@@H](COc2cc(-c3ccc(C#N)cc3)c(-c3cnc4ccoc4c3)n3cncc23)C1` (stereo partly drawn) [Example 119, 4-(5-(furo[3,2-b]pyridin-6-yl)-8-(((3R)-1-(2-hydroxypropyl)piperidin-3-yl)methoxy)imidazo[1,5-a]pyridin-6-yl)benzonitrile] showed an IC50 of 50 to 100 nM.

Work on `CC(O)c1c(F)cc(-c2c(-c3ccc(C#N)cc3)cc(OC[C@@H]3CCCN(C)C3)c3cncn23)cc1F` (stereo partly drawn) [Example 124, 4-(5-[3,5-difluoro-4-(1-hydroxyethyl)phenyl]-8-{[(3R)-1-methylpiperidin-3-yl]methoxy}imidazo[1,5-a]pyridin-6-yl)benzonitrile] yielded an IC50 of 50 to 100 nM.

For `CN1CCC[C@@H](COc2cc(-c3ccc(C#N)cc3)c(-c3ccc(C(C)(C)C#N)nc3)n3cncc23)C1` [Example 132, 4-(5-[6-(1-cyano-1-methylethyl)pyridin-3-yl]-8-{[(3R)-1-methylpiperidin-3-yl]methoxy}imidazo[1,5-a]pyridin-6-yl)benzonitrile], the IC50 was 50 to 100 nM.

`CCc1ccc(-c2c(-c3ccc(C#N)cc3)cc(OC[C@@H]3CCCN(C)C3)c3cncn23)cn1` [Example 133, 4-(5-(6-ethylpyridin-3-yl)-8-{[(3R)-1-methylpiperidin-3-yl]methoxy}imidazo[1,5-a]pyridin-6-yl)benzonitrile] showed an IC50 of 50 to 100 nM.

In the case of `CNC(=O)c1ccc(-c2c(-c3ccc(C#N)cc3)cc(OC[C@@H]3CCCN(C)C3)c3cncn23)cn1` [Example 135, 5-(6-(4-cyanophenyl)-8-{[(3R)-1-methylpiperidin-3-yl]methoxy}imidazo[1,5-a]pyridin-5-yl)-N-methylpyridine-2-carboxamide], the IC50 is reported as 50 to 100 nM.

`Cc1ncc(-c2c(-c3ccc(C#N)cc3)nc(N3CCC(N(C)C)CC3)c3cncn23)cc1C(F)F` [Example 140, 4-{5-[5-(difluoromethyl)-6-methylpyridin-3-yl]-8-[4-(dimethylamino)piperidin-1-yl]imidazo[1,5-a]pyrazin-6-yl}benzonitrile] gave an IC50 of 50 to 100 nM.

In the case of `CNC(=O)c1ccc(-c2c(-c3ccc(C#N)cc3)nc(N3CCC(N(C)C)CC3)c3cncn23)cn1` [Example 141, 5-{6-(4-cyanophenyl)-8-[4-(dimethylamino)piperidin-1-yl]imidazo[1,5-a]pyrazin-5-yl}-N-methylpyridine-2-carboxamide], the IC50 is reported as 100 to 500 nM.

Work on `CCN1CCC[C@@H](COc2cc(-c3ccc(C#N)cc3)c(-c3ccc(C)nc3)n3cncc23)C1` [Example 146, 4-[8-{[(3R)-1-ethylpiperidin-3-yl]methoxy}-5-(6-methylpyridin-3-yl)imidazo[1,5-a]pyridin-6-yl]benzonitrile] yielded an IC50 of 50 to 100 nM.

With `COCc1cc(-c2c(-c3ccc(C#N)cc3)cc(OC[C@@H]3CCCN(C)C3)c3cncn23)cnc1C` [Example 147, 4-(5-[5-(methoxymethyl)-6-methylpyridin-3-yl]-8-{[(3R)-1-methylpiperidin-3-yl]methoxy}imidazo[1,5-a]pyridin-6-yl)benzonitrile] the IC50 was 50 to 100 nM.

`COc1ncc(-c2c(-c3ccc(C#N)cc3)nc(N3CCC(N(C)C)CC3)c3cncn23)cn1` [Example 150, 4-[8-[4-(dimethylamino)piperidin-1-yl]-5-(2-methoxypyrimidin-5-yl)imidazo[1,5-a]pyrazin-6-yl]benzonitrile] showed an IC50 of 100 to 500 nM.

For `CN1CCC[C@@H](COc2cc(-c3ccc(C#N)cc3)c(-c3ccc(C(C)(C)O)nc3)n3cncc23)C1` [Example 151, 4-(5-[6-(1-hydroxy-1-methylethyl)pyridin-3-yl]-8-{[(3R)-1-methylpiperidin-3-yl]methoxy}imidazo[1,5-a]pyridin-6-yl)benzonitrile], the IC50 was 100 to 500 nM.

Work on `CN1CCC[C@@H](COc2cc(-c3ccc(C#N)cc3)c(-c3cnc4c(c3)OCC(=O)N4C)n3cncc23)C1` [Example 152, (R)-4-(5-(4-methyl-3-oxo-3,4-dihydro-2H-pyrido[3,2-b][1,4]oxazin-7-yl)-8-((1-methylpiperidin-3-yl)methoxy)imidazo[1,5-a]pyridin-6-yl)benzonitrile] yielded an IC50 of 50 to 100 nM.

With `CN1CCC[C@@H](COc2cc(-c3ccc(C#N)cc3)c(-c3ccc4c(c3)CN(C)C4=O)n3cncc23)C1` [Example 154, 4-(5-(2-methyl-1-oxo-2,3-dihydro-1H-isoindol-5-yl)-8-{[(3R)-1-methylpiperidin-3-yl]methoxy}imidazo[1,5-a]pyridin-6-yl)benzonitrile] the IC50 was 100 to 500 nM.

`CC(C)n1nnc2cc(-c3c(-c4ccc(C#N)cc4)cc(OC[C@@H]4CCCN(C)C4)c4cncn34)cnc21` [Example 155, (R)-4-(5-(3-isopropyl-3H-[1,2,3]triazolo[4,5-b]pyridin-6-yl)-8-((1-methylpiperidin-3-yl)methoxy)imidazo[1,5-a]pyridin-6-yl)benzonitrile] gave an IC50 of 100 to 500 nM.

With `CN1CCC[C@@H](COc2cc(-c3ccc(C#N)cc3)c(-c3cnc4c(c3)nnn4C3CC3)n3cncc23)C1` [Example 156, (R)-4-(5-(3-cyclopropyl-3H-[1,2,3]triazolo[4,5-b]pyridin-6-yl)-8-((1-methylpiperidin-3-yl)methoxy)imidazo[1,5-a]pyridin-6-yl)benzonitrile] the IC50 was 100 to 500 nM.

`CC(C)c1nc2cc(-c3c(-c4ccc(C#N)cc4)cc(OC[C@@H]4CCCN(C)C4)c4cncn34)cnc2n1C` [Example 157, (R)-4-(5-(2-isopropyl-3-methyl-3H-imidazo[4,5-b]pyridin-6-yl)-8-((1-methylpiperidin-3-yl)methoxy)imidazo[1,5-a]pyridin-6-yl)benzonitrile] gave an IC50 of 100 to 500 nM.

`CN1CCC[C@@H](COc2cc(-c3ccc(C#N)cc3)c(-c3cnc4c(c3)nc(C3CC3)n4C)n3cncc23)C1` [Example 158, (R)-4-(5-(2-cyclopropyl-3-methyl-3H-imidazo[4,5-b]pyridin-6-yl)-8-((1-methylpiperidin-3-yl)methoxy)imidazo[1,5-a]pyridin-6-yl)benzonitrile] was tested, and the IC50 was 100 to 500 nM.
